Experimental data published in patent US10918742B2, “Iodine-based particles” (Nanoprobes, Inc., priority 2016, dated 2021).

Experiments:
[1] = microCT comparison with commercially available agent (kidney, lung); type: in vivo, mouse
Protocol: A mouse was injected with a standard iodine contrast agent at an effective dose of 2.5 g iodine/kg.
A mouse was injected with a standard iodine contrast agent at an effective dose of 1.75 g iodine/kg.

[2] = mice, acute dose; cited from earlier work

CC(=O)N(CC(O)CO)c1c(I)c(C(=O)NCC(O)CO)c(I)c(C(=O)NCC(O)CO)c1I (stereo not drawn) [Iohexol, 5-(N-2,3-Dihydroxypropylacetamido)-2,4,6-triiodo-N,N′-bis(2,3-dihydroxypropyl)isophthalamide]
microCT of lung region ([1]; 30 minutes after injection, 1.75 g iodine/kg): no clear visualization of any vasculature | microCT of kidney region ([1]; two minutes after injection, Example 1 at 1.75 g iodine/kg, standard agent at 2.5 g iodine/kg): the iodine has rapidly entered the kidneys and is being quickly removed from the blood | intravenous LD50 [2]: 24.2 g iodine/kg
